Measurements: patent US20240293392A1, “INHIBITOR COMPOUNDS” (NeoPhore Limited, priority 2021, published 2024)

Legend:
[1] = target: T1, recombinant N-terminal MLH1 (residues 15-340) (Homo sapiens, UniProt P40692); experiment: Fluorescence Polarisation Assay for MLH1; format: binding; details: fluorescence polarisation probe displacement; 100 nM N-terminal MLH1, 5 nM probe compound
T1 construct: recombinant N-terminal MLH1 (residues 15-340)
T1 sequence (P40692 15-340): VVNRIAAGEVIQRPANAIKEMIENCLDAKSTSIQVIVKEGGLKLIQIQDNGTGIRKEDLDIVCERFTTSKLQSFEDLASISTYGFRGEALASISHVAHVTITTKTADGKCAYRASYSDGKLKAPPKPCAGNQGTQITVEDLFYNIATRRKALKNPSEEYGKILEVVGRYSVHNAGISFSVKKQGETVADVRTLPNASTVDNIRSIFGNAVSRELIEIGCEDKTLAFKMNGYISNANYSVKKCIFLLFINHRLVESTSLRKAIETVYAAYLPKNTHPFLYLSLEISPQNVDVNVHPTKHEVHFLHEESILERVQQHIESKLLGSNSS
Method in brief: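 FP displacement assay: 100 nM MLH1 (residues 15-340) preincubated 30 min at room temperature with compound in 25 mM HEPES pH 7.5, 250 mM NaCl, 10 mM MgCl2, 0.01% Triton X-100, 5 mM DTT, then 5 nM rhodamine-labelled probe added and read immediately. Data normalised to no-inhibitor and no-enzyme controls.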

[2] = target: T2, recombinant N-terminal PMS2 (residues 1-365) (Homo sapiens, UniProt P54278); experiment: Fluorescence Polarisation Assay for PMS2; format: binding; details: fluorescence polarisation probe displacement; 10 nM N-terminal PMS2, 5 nM probe compound; read-out: PMS2 IC50
T2 construct: recombinant N-terminal PMS2 (residues 1-365)
T2 sequence (P54278 1-365): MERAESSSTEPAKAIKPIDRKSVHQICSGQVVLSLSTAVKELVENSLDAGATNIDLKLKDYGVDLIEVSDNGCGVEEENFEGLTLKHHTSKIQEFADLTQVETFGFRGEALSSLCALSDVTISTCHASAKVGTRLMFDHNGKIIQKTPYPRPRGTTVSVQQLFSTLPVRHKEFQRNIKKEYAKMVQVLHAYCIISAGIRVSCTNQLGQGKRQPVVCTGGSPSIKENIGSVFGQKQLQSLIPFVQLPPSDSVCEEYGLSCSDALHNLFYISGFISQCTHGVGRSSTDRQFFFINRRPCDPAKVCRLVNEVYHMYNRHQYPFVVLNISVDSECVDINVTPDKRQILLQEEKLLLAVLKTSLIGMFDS
Method in brief: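 Competition fluorescence polarisation with 10 nM N-terminal PMS2 and 5 nM fluorescent probe (final), read after 1 h at room temperature following 30 min compound pre-incubation. Data normalised to no-inhibitor and no-enzyme controls; single-point screening or serial dilutions for potency.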

Compound | IC50 [1] [nM] | IC50 [2] [nM]
O=C(c1c(O)cc(O)cc1OCc1ccccc1)N1Cc2cccc(OC3CCOC3)c2C1 (stereo not drawn) [Example 88, (2-(Benzyloxy)-4,6-dihydroxyphenyl)(4-((tetrahydrofuran-3-yl)oxy)isoindolin-2-yl)methanone] | 1000 to 10000 | 1000 to 10000
O=C(c1c(O)cc(O)cc1OCc1ccccc1)N1CCc2cccc(NC3CCS(=O)(=O)C3)c2C1 (stereo not drawn) [Example 147, (2-(Benzyloxy)-4,6-dihydroxyphenyl)(8-((1,1-dioxidotetrahydrothiophen-3-yl)amino)-3,4-dihydroisoquinolin-2(1H)-yl)methanone] | < 1000 | 1000 to 10000
Cn1ccc(Nc2cccc3c2CN(C(=O)c2c(O)cc(O)cc2OCc2ccccc2)CC3)cc1=O [Example 133, 4-((2-(2-(Benzyloxy)-4,6-dihydroxybenzoyl)-1,2,3,4-tetrahydro-isoquinolin-8-yl)amino)-1-methylpyridin-2(1H)-one] | 1000 to 10000 | 1000 to 10000
CN1CCN(Cc2cc3c(c(N[C@@H]4CCOC4)c2)CN(C(=O)c2c(O)cc(O)cc2OCc2ccccc2)CC3)CC1 [Example 122, (R)-(2-(Benzyloxy)-4,6-dihydroxyphenyl)(6-((4-methylpiperazin-1-yl)methyl)-8-((tetrahydrofuran-3-yl)amino)-3,4-dihydroisoquinolin-2(1H)-yl)methanone] | < 1000 | 1000 to 10000
N#CC1CC(Oc2cccc3c2CN(C(=O)c2c(O)cc(O)cc2OCc2ccccc2)C3)C1 (stereo not drawn) [Example 5, 3-((2-(2-(Benzyloxy)-4,6-dihydroxybenzoyl)isoindolin-4-yl)oxy)cyclobutane-1-carbonitrile] | 1000 to 10000 | 1000 to 10000
O=C(c1c(O)cc(O)cc1OCc1ccc(F)c(F)c1)N1Cc2cccc(NC3CCOC3)c2C1 (stereo not drawn) [Example 38, (2-((3,4-Difluorobenzyl)oxy)-4,6-dihydroxyphenyl)(4-((tetrahydrofuran-3-yl)amino)isoindolin-2-yl)methanone] | < 1000 | 1000 to 10000
CN1CCC(Oc2cc3c(c(N[C@@H]4CCOC4)c2)CN(C(=O)c2c(O)cc(O)cc2OCc2ccccc2)CC3)CC1 [Example 138, (R)-(2-(Benzyloxy)-4,6-dihydroxyphenyl)(6-((1-methylpiperidin-4-yl)oxy)-8-((tetrahydrofuran-3-yl)amino)-3,4-dihydroisoquinolin-2(1H)-yl)methanone] | < 1000 | 1000 to 10000
O=C(c1c(O)cc(O)cc1OCc1ccccn1)N1Cc2cccc(NC3CCOC3)c2C1 (stereo not drawn) [Example 40, (2,4-Dihydroxy-6-(pyridin-2-ylmethoxy)phenyl)(4-((tetrahydrofuran-3-yl)amino)isoindolin-2-yl)methanone] | < 1000 | > 10000
O=C(c1c(O)cc(O)cc1OCC1CC1)N1Cc2cccc(NC3CCOC3)c2C1 (stereo not drawn) [Example 25, (2-(Cyclopropylmethoxy)-4,6-dihydroxyphenyl)(4-((tetrahydrofuran-3-yl)amino)isoindolin-2-yl)methanone] | < 1000 | 1000 to 10000
O=C(c1c(O)cc(O)cc1OCc1ccccc1)N1Cc2cccc(NCC3CCOC3)c2C1 (stereo not drawn) [Example 112, (2-(Benzyloxy)-4,6-dihydroxyphenyl)(4-(((tetrahydrofuran-3-yl)methyl)amino)isoindolin-2-yl)methanone] | < 1000 | 1000 to 10000
O=C(c1c(O)cc(O)cc1OCc1ccccc1)N1Cc2ccc(CN3CCNCC3)cc2C1 [Example 3, (2-(Benzyloxy)-4,6-dihydroxyphenyl)(5-(piperazin-1-ylmethyl)isoindolin-2-yl)methanone] | < 1000 | 1000 to 10000
CN(C)Cc1cc2c(c(N[C@H]3CCOC3)c1)CN(C(=O)c1c(O)cc(O)cc1OCc1ccccc1)CC2 [Example 125, (S)-(2-(Benzyloxy)-4,6-dihydroxyphenyl)(6-((dimethylamino)methyl)-8-((tetrahydrofuran-3-yl)amino)-3,4-dihydroisoquinolin-2(1H)-yl)methanone] | < 1000 | < 1000
